Converted amounts (≈) assume the structure as drawn. The source made the active and inactive calls. No cut-off for these calls is given here.
Assays:
[1] = target: T1, Protein cereblon/Bromodomain-containing protein 4/DNA damage-binding protein 1 (Homo sapiens, UniProt O60885+Q96SW2+Q16531); assay: Induction of CRBN/DDB1-mediated BRD4 protein degradation in human NCI-H661 cells assessed as drug level causing 50% cellular protein depletion incubated for 4 hrs by MSD assay
[2] = Solubility of the compound in 0.01 N HCl
[3] = target: T2, von Hippel-Lindau disease tumor suppressor/Bromodomain-containing protein 4 (Homo sapiens) (UniProt O60885+P40337); assay: Induction of human His-tagged VHL(1 to 154)/GST-tagged BRD4 (49 to 170 residues) interaction assessed as VHL/BRD4/compound complex formation preincubated for 60 mins and measured after 60 mins by luminescence based Alphascreen proximity assay relative to control; assay type: protein assay
T2 sequence (P40337 whole entry, looked up, other chains not shown, the tested form may be a part): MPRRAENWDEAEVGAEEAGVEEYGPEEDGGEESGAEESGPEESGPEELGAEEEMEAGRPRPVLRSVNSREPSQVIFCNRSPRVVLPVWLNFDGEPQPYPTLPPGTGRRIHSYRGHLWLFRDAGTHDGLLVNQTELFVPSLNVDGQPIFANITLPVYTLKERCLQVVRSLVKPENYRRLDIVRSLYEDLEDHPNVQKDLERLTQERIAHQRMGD

physchem = conditions: fasted state simulated intestinal fluid
[4] = Solubility of the compound in PBS
[5] = target: T1, Protein cereblon/Bromodomain-containing protein 4/DNA damage-binding protein 1; assay: Proteolysis targeting chimera activity in human NCI-H661 cells assessed as induction of CRBN/DDB1-mediated delivery of BRD4 for protein degradation by proteasome at 10 uM after 4 hrs by Meso Scale Diagnostics assay; assay type: cell-based
[6] = target: T2, von Hippel-Lindau disease tumor suppressor/Bromodomain-containing protein 4 (Homo sapiens); assay: Proteolysis targeting chimera activity in human NCI-H661 cells assessed as induction of VHL-mediated delivery of BRD4 for protein degradation by proteasome after 4 hrs in presence of 2-(prop-2-ynyloxy)ethanol by Meso Scale Diagnostics assay; assay type: cell-based
[7] = target: T1, Protein cereblon/Bromodomain-containing protein 4/DNA damage-binding protein 1; assay: Proteolysis targeting chimera activity in human NCI-H661 cells assessed as induction of CRBN/DDB1-mediated delivery of BRD4 for protein degradation at 1 uM after 4 hrs by Meso Scale Diagnostics assay; assay type: cell-based
[8] = target: T1, Protein cereblon/Bromodomain-containing protein 4/DNA damage-binding protein 1; assay: Proteolysis targeting chimera activity in human NCI-H661 cells assessed as induction of CRBN/DDB1-mediated delivery of BRD4 for protein degradation by proteasome at 1 uM after 4 hrs in presence of 10 uM of JQ-1 by Meso Scale Diagnostics assay; assay type: cell-based
[9] = target: T1, Protein cereblon/Bromodomain-containing protein 4/DNA damage-binding protein 1; assay: Proteolysis targeting chimera activity in human NCI-H661 cells assessed as induction of CRBN/DDB1-mediated delivery of BRD4 for protein degradation by proteasome at 1 uM after 4 hrs in presence of 10 uM thalidomide by Meso Scale Diagnostics assay; assay type: cell-based
[10] = target: T1, Protein cereblon/Bromodomain-containing protein 4/DNA damage-binding protein 1; assay: Proteolysis targeting chimera activity in human NCI-H661 cells assessed as induction of CRBN/DDB1-mediated delivery of BRD4 for protein degradation by proteasome at 1 uM after 4 hrs in presence of 20 uM MG132 by Meso Scale Diagnostics assay; assay type: cell-based

Compound	DC50 [1] [nM]	solubility ([2]; 0.01 N HCl) [µM]	%max [3] [%]	solubility (physchem) [µM]	solubility [4] [µM]	other results
Cc1ncsc1-c1ccc(CNC(=O)[C@H]2CN(C(=O)[C@@H](NC(=O)COCc3cn(CCNC(=O)C[C@@H]4N=C(c5ccc(Cl)cc5)c5c(sc(C)c5C)-n5c(C)nnc54)nn3)C(C)(C)C)C[C@@H]2O)cc1	59	314 (≈ 313 µg/mL)	46	90 (≈ 89.6 µg/mL)	–	–
Cc1ncsc1-c1ccc(CNC(=O)[C@@H]2C[C@@H](O)CN2C(=O)[C@@H](NC(=O)COCCOCCOCc2cn(CCNC(=O)C[C@@H]3N=C(c4ccc(Cl)cc4)c4c(sc(C)c4C)-n4c(C)nnc43)nn2)C(C)(C)C)cc1	240	293 (≈ 318 µg/mL)	11	183 (≈ 198 µg/mL)	71 (≈ 76.9 µg/mL)	–
Cc1sc2c(c1C)C(c1ccc(Cl)cc1)=N[C@@H](CC(=O)NCCn1cc(COc3cccc4c3C(=O)N(C3CCC(=O)NC3=O)C4=O)nn1)c1nnc(C)n1-2 (stereo partly specified)	–	171 (≈ 134 µg/mL)	–	191 (≈ 149 µg/mL)	31 (≈ 24.2 µg/mL)	–
Cc1ncsc1-c1ccc(CNC(=O)[C@@H]2C[C@@H](O)CN2C(=O)[C@@H](NC(=O)COCCOCCOCCNC(=O)C[C@@H]2N=C(c3ccc(Cl)cc3)c3c(sc(C)c3C)-n3c(C)nnc32)C(C)(C)C)cc1	–	–	100	164 (≈ 164 µg/mL)	97 (≈ 97.3 µg/mL)	solubility ([2]; buffer): 450 µM (≈ 451 µg/mL)
Cc1sc2c(c1C)C(c1ccc(Cl)cc1)=N[C@@H](CC(=O)NCCN=[N+]=[N-])c1nnc(C)n1-2	–	–	–	–	–	Activity [5]: inactive
Cc1sc2c(c1C)C(c1ccc(Cl)cc1)=N[C@@H](CC(=O)NCCn1cc(COCCOCCOc3cccc4c3C(=O)N(C3CCC(=O)NC3=O)C4=O)nn1)c1nnc(C)n1-2 (stereo partly specified)	> 5000	237 (≈ 206 µg/mL)	–	237 (≈ 206 µg/mL)	76 (≈ 66.1 µg/mL)	–
Cc1ncsc1-c1ccc(CNC(=O)[C@@H]2C[C@@H](O)CN2C(=O)[C@@H](NC(=O)COCCOCc2cn(CCNC(=O)C[C@@H]3N=C(c4ccc(Cl)cc4)c4c(sc(C)c4C)-n4c(C)nnc43)nn2)C(C)(C)C)cc1	83	343 (≈ 357 µg/mL)	22	178 (≈ 185 µg/mL)	38 (≈ 39.5 µg/mL)	Activity [6]: inactive
Cc1sc2c(c1C)C(c1ccc(Cl)cc1)=N[C@@H](CC(=O)NCCn1cc(COCCOc3cccc4c3C(=O)N(C3CCC(=O)NC3=O)C4=O)nn1)c1nnc(C)n1-2 (stereo partly specified)	> 5000	242 (≈ 200 µg/mL)	–	247 (≈ 204 µg/mL)	111 (≈ 91.6 µg/mL)	–
Cc1ncsc1-c1ccc(CNC(=O)[C@@H]2C[C@@H](O)CN2C(=O)[C@@H](NC(=O)COCCOCCOCCOCc2cn(CCNC(=O)C[C@@H]3N=C(c4ccc(Cl)cc4)c4c(sc(C)c4C)-n4c(C)nnc43)nn2)C(C)(C)C)cc1	460	394 (≈ 444 µg/mL)	15	294 (≈ 332 µg/mL)	168 (≈ 189 µg/mL)	–
Cc1sc2c(c1C)C(c1ccc(Cl)cc1)=N[C@@H](CC(=O)NCCCCNC(=O)COc1cccc3c1C(=O)N(C1CCC(=O)NC1=O)C3=O)c1nnc(C)n1-2 (stereo partly specified)	–	171 (≈ 134 µg/mL)	–	97 (≈ 76.2 µg/mL)	60 (≈ 47.1 µg/mL)	–
C#CCOCCOCCOCCOCCOc1cccc2c1C(=O)N(C1CCC(=O)NC1=O)C2=O (stereo unspecified)	–	–	–	–	–	Activity [5]: inactive
Cc1sc2c(c1C)C(c1ccc(Cl)cc1)=N[C@@H](CC(=O)NCCn1cc(COCCOCCOCCOCCOc3cccc4c3C(=O)N(C3CCC(=O)NC3=O)C4=O)nn1)c1nnc(C)n1-2 (stereo partly specified)	200	317 (≈ 304 µg/mL)	–	273 (≈ 261 µg/mL)	158 (≈ 151 µg/mL)	Activity [7]: > 90%; Activity [8]: inactive; Activity [9]: inactive; Activity [10]: inactive
Cc1sc2c(c1C)C(c1ccc(Cl)cc1)=N[C@@H](CC(=O)NCCn1cc(COCCOCCOCCOc3cccc4c3C(=O)N(C3CCC(=O)NC3=O)C4=O)nn1)c1nnc(C)n1-2 (stereo partly specified)	–	310 (≈ 283 µg/mL)	–	216 (≈ 197 µg/mL)	130 (≈ 119 µg/mL)	–
Cc1ncsc1-c1ccc(CNC(=O)[C@@H]2C[C@@H](O)CN2C(=O)[C@@H](NC(=O)COCCOCCOCCOCCOCc2cn(CCNC(=O)C[C@@H]3N=C(c4ccc(Cl)cc4)c4c(sc(C)c4C)-n4c(C)nnc43)nn2)C(C)(C)C)cc1	630	500 (≈ 586 µg/mL)	3	313 (≈ 367 µg/mL)	206 (≈ 241 µg/mL)	–

Reference: ChEMBL document CHEMBL4219024, “A "Click Chemistry Platform" for the Rapid Synthesis of Bispecific Molecules for Inducing Protein Degradation” (J Med Chem, 2018)
